Results on eleven compounds are retold here after patent publication US20250018047A1, “METHODS AND COMPOSITIONS FOR TARGETED PROTEIN DEGRADATION” (Ranok Therapeutics (Hangzhou) Co. Ltd., priority 2021, published 2025).

As a reminder, the IC50 is the concentration that inhibits the measured activity by half.

One assay addresses T1, KRAS(G12D)/SOS1 (Homo sapiens, UniProt P01116, G12D).
T1 construct: purchased Cisbio 63ADK000CB16PEG
Kind of assay: KRAS(G12D)/SOS1 homogeneous time-resolved fluorescence (HTRF) assay. The assay is classed as binding. Conditions: absence of GTP, 4° C. for 3 hr. As to the method: The test compound was mixed and incubated with reaction components, incubated in a sealed plate at 4° C. for 3 hr and fluorescence was measured using a PerkinElmer Envision plate reader.
A general note: TR-FRET usually uses a lanthanide donor and a delayed reading to cut background.

The test system of assay [1] is AsPC-1 human pancreatic adenocarcinoma. Kind of assay: CellTiter-Glo cancer cell line proliferation assay, AsPC-1. The assay is classed as cell-based. The settings on record: Homo sapiens, ASPC1, 24 hr. An outline of the steps:
(§1)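 Cells plated at 4,000/well, grown 24 h at 37 °C/5% CO2, then exposed to compound concentration series (0.5% DMSO final) for 24 h. Viability read by CellTiter-Glo luminescence; IC50 values calculated.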

Assay [2] has as its system A-427 human lung carcinoma. Kind of assay: CellTiter-Glo cancer cell line proliferation assay, A-427. The assay is classed as cell-based. The settings on record: Homo sapiens, A-427, 24 hr, read-out: A427 at 24 hrs, IC50. An outline of the steps:
as §1
For orientation: ATP-based viability assays read luminescence as a measure of living cells.

In assay [3] the target is BA/F3-KRAS(G12D) murine pro-B cell line stably expressing KRAS(G12D) (Homo sapiens, UniProt P01116, G12D, cells depend on it). Description: CellTiter-Glo cancer cell line proliferation assay, BA/F3-KRAS(G12D). The settings on record: 24 hr, read-out: BAF3 at 24 hrs, IC50. The assay is classed as cell-based. The procedure: The following cancer cell lines were employed: AsPC-1 human pancreatic adenocarcinoma (ATCC, #CRL-1682); A-427 human lung carcinoma (ATCC, #HTB-53); BA/F3-KRAS(G12D) murine pro-B cell line stably expressing KRAS(G12D) (Precedo, Hefei, China). Cell lines were cultured according to ATCC and recommendations. BA/F3-KRAS(G12D) cells were cultured in RPMI 1640 media with 10% fetal calf serum, 100 units/mL penicillin and […] streptomycin, and 1% glutamine.
BA/F3-KRAS(G12D) murine pro-B cell line stably expressing KRAS(G12D), sequence (P01116 whole entry G12D): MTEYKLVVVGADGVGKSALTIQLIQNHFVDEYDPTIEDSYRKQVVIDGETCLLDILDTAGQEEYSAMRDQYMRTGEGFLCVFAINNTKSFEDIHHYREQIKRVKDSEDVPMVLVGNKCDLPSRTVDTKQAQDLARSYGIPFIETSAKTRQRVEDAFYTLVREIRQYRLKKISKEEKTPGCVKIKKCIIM
CellTiter-Glo® Reagent Cancer Cell Line Proliferation Assays
Cells were plated in 96-well tissue culture plates at 4,000 cells/well and incubated at 37° C./5% CO2 for 24 hr in 100 μl of media. 3-fold serial dilutions of each test compound were prepared ranging from 20 μM to 1.02 nM. Cells were then treated with test compounds at various concentrations with a final concentration of 0.5% DMSO/well, and then incubated at 37° C./5% CO2 for 24 hr. 100 μl of CellTiter-Glo® Reagent (Promega Corporation, Madison, WI) was added to each well and processed according manufacturer's protocol. Results were analyzed and IC50-values were calculated in GraphPad 7 software.

Where a name gives a salt, the structure may show the parent alone.

T1 sequence (P01116 1-188 isoform P01116-2 G12D): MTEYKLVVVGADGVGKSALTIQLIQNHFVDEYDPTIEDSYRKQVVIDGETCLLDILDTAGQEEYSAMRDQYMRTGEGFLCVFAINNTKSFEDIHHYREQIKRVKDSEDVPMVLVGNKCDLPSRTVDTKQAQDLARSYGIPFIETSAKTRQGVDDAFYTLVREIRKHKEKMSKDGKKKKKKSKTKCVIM

Regarding `CN1C[C@@H](N2CCC(C(=O)NCCOCCOc3ccc4c(c3)C(=O)N(C3CCC(=O)NC3=O)C4=O)CC2)C[C@H]1COc1nc(N2CC3CCC(C2)N3)c2cnc(-c3cccc4cccc(Cl)c34)c(F)c2n1` (stereo partly drawn) [Compound 11, 1-((3S,5S)-5-(((4-(3,8-diazabicyclo[3.2.1]octan-3-yl)-7-(8-chloronaphthalen-1-yl)-8-fluoropyrido[4,3-d]pyrimidin-2-yl)oxy)methyl)-1-methylpyrrolidin-3-yl)-N-(2-(2-((2-(2,6-dioxopiperidin-3-yl)-1,3-dioxoisoindolin-5-yl)oxy)ethoxy)ethyl)piperidine-4-carboxamide formate], the figures for the 50% inhibitory concentration (IC50) (against KRAS(G12D)/SOS1; in assay [1]; in assay [2]) were 100 to 1000 nM, greater than 1000 nM and greater than 1000 nM, respectively. The GI50 in assay [3] was greater than 1000 nM.
On to `Cc1ncsc1-c1ccc(CNC(=O)[C@@H]2C[C@@H](O)CN2C(=O)[C@@H](NC(=O)CCCNC(=O)C2CCN([C@H]3C[C@@H](COc4nc(N5CC6CCC(C5)N6)c5cnc(-c6cccc7cccc(Cl)c67)c(F)c5n4)N(C)C3)CC2)C(C)(C)C)cc1` [Compound 26, 1-((3S,5S)-5-(((4-(3,8-diazabicyclo[3.2.1]octan-3-yl)-7-(8-chloronaphthalen-1-yl)-8-fluoropyrido[4,3-d]pyrimidin-2-yl)oxy)methyl)-1-methylpyrrolidin-3-yl)-N-(4-(((S)-1-((2S,4R)-4-hydroxy-2-((4-(4-methylthiazol-5-yl)benzyl)carbamoyl)pyrrolidin-1-yl)-3,3-dimethyl-1-oxobutan-2-yl)amino)-4-oxobutyl)piperidine-4-carboxamide], for which the IC50 was less than 100 nM at KRAS(G12D)/SOS1, greater than 1000 nM in assay [1] and greater than 1000 nM in assay [2]. Moreover, the GI50 in assay [3] was greater than 1000 nM.
Turning to `CN1C[C@@H](N2CCC(C(=O)Nc3ccc4c(c3)C(=O)N(C3CCC(=O)NC3=O)C4=O)CC2)C[C@H]1COc1nc(N2CC3CCC(C2)N3)c2cnc(-c3cccc4ccccc34)c(F)c2n1` (stereo partly drawn) [Compound 25, 1-((3S,5S)-5-(((4-(3,8-diazabicyclo[3.2.1]octan-3-yl)-8-fluoro-7-(naphthalen-1-yl)pyrido[4,3-d]pyrimidin-2-yl)oxy)methyl)-1-methylpyrrolidin-3-yl)-N-(2-(2,6-dioxopiperidin-3-yl)-1,3-dioxoisoindolin-5-yl)piperidine-4-carboxamide formate], the IC50 was less than 100 nM at KRAS(G12D)/SOS1, greater than 1000 nM in assay [1] and greater than 1000 nM in assay [2]. In assay [3], the GI50 is greater than 1000 nM.
In the case of `C#Cc1cccc2cccc(-c3ncc4c(N5CC6CCC(C5)N6)nc(OC[C@@H]5CC[C@H](CN6CCN(CC7CCN(c8ccc9c(c8)C(=O)N(C8CCC(=O)NC8=O)C9=O)CC7)CC6)N5C)nc4c3F)c12` (stereo partly drawn) [Compound 13, 5-(4-((4-(((2R,5S)-5-(((4-(3,8-diazabicyclo[3.2.1]octan-3-yl)-7-(8-ethynylnaphthalen-1-yl)-8-fluoropyrido[4,3-d]pyrimidin-2-yl)oxy)methyl)-1-methylpyrrolidin-2-yl)methyl)piperazin-1-yl)methyl)piperidin-1-yl)-2-(2,6-dioxopiperidin-3-yl)isoindoline-1,3-dione hydrochloride], the IC50 was less than 100 nM against KRAS(G12D)/SOS1, greater than 1000 nM in assay [1] and greater than 1000 nM in assay [2]. Besides, in assay [3], the GI50 fell in the range of 100 to 1000 nM.
Regarding `C#Cc1cccc2cccc(-c3ncc4c(N5CC6CCC(C5)N6)nc(OCCN5CCN(Cc6ccc7c(c6)C(=O)N(C6CCC(=O)NC6=O)C7=O)CC5)nc4c3F)c12` (centres unmarked) [Compound 2, 5-((4-(2-((4-(3,8-diazabicyclo[3.2.1]octan-3-yl)-7-(8-ethynylnaphthalen-1-yl)-8-fluoropyrido[4,3-d]pyrimidin-2-yl)oxy)ethyl)piperazin-1-yl)methyl)-2-(2,6-dioxopiperidin-3-yl)isoindoline-1,3-dione hydrochloride], the 50% inhibitory concentration (IC50) against KRAS(G12D)/SOS1 is less than 100 nM; in assay [1], greater than 1000 nM; in assay [2], greater than 1000 nM. Moreover, in assay [3], the GI50 is greater than 1000 nM.
For `C#Cc1cccc2cccc(-c3ncc4c(N5CC6CCC(C5)N6)nc(OCC5(CN6CCN(CC7CCN(c8cccc9c8C(=O)N(C8CCC(=O)NC8=O)C9=O)CC7)CC6)CC5)nc4c3F)c12` (centres unmarked) [Compound 29, 4-(4-((4-((1-(((4-(3,8-diazabicyclo[3.2.1]octan-3-yl)-7-(8-ethynylnaphthalen-1-yl)-8-fluoropyrido[4,3-d]pyrimidin-2-yl)oxy)methyl)cyclopropyl)methyl)piperazin-1-yl)methyl)piperidin-1-yl)-2-(2,6-dioxopiperidin-3-yl)isoindoline-1,3-dione formate], the results for the IC50 (against KRAS(G12D)/SOS1; in assay [1]; in assay [2]) were less than 100 nM, greater than 1000 nM and greater than 1000 nM, respectively. Also, the GI50 in assay [3] is 100 to 1000 nM.
In the case of `CN1C[C@@H](N2CCC(C(=O)Nc3ccc4c(c3)C(=O)N(C3CCC(=O)NC3=O)C4=O)CC2)C[C@H]1COc1nc(N2CC3CCC(C2)N3)c2cnc(-c3cccc4cccc(Cl)c34)c(F)c2n1` (stereo partly drawn) [Compound 10, 1-((3S,5S)-5-(((4-(3,8-diazabicyclo[3.2.1]octan-3-yl)-7-(8-chloronaphthalen-1-yl)-8-fluoropyrido[4,3-d]pyrimidin-2-yl)oxy)methyl)-1-methylpyrrolidin-3-yl)-N-(2-(2,6-dioxopiperidin-3-yl)-1,3-dioxoisoindolin-5-yl)piperidine-4-carboxamide formate], the IC50 against KRAS(G12D)/SOS1 was less than 100 nM; in assay [1], greater than 1000 nM; in assay [2] it was greater than 1000 nM. Besides, the GI50 in assay [3] was greater than 1000 nM.
`C#Cc1cccc2cccc(-c3ncc4c(N5CC6CCC(C5)N6)nc(OC[C@@H]5C[C@H](N6CCN(Cc7ccc8c(c7)C(=O)N(C7CCC(=O)NC7=O)C8=O)CC6)CN5C)nc4c3F)c12` (stereo partly drawn) [Compound 7, 5-((4-((3S,5S)-5-(((4-(3,8-diazabicyclo[3.2.1]octan-3-yl)-7-(8-ethynylnaphthalen-1-yl)-8-fluoropyrido[4,3-d]pyrimidin-2-yl)oxy)methyl)-1-methylpyrrolidin-3-yl)piperazin-1-yl)methyl)-2-(2,6-dioxopiperidin-3-yl)isoindoline-1,3-dione formate]: the values for the half-inhibitory concentration (IC50) (against KRAS(G12D)/SOS1; in assay [1]; in assay [2]) were less than 100 nM, greater than 1000 nM and greater than 1000 nM, respectively. Further, the GI50 in assay [3] is greater than 1000 nM.
On to `CN1C[C@@H](N2CCC(C(=O)N3CCN(c4ccc5c(c4)C(=O)N(C4CCC(=O)NC4=O)C5=O)CC3)CC2)C[C@H]1COc1nc(N2CC3CCC(C2)N3)c2cnc(-c3cccc4ccccc34)c(F)c2n1` (stereo partly drawn) [Compound 19, 5-(4-(1-((3S,5S)-5-(((4-(3,8-diazabicyclo[3.2.1]octan-3-yl)-8-fluoro-7-(naphthalen-1-yl)pyrido[4,3-d]pyrimidin-2-yl)oxy)methyl)-1-methylpyrrolidin-3-yl)piperidine-4-carbonyl)piperazin-1-yl)-2-(2,6-dioxopiperidin-3-yl)isoindoline-1,3-dione formate], for which the IC50 is 100 to 1000 nM at KRAS(G12D)/SOS1, greater than 1000 nM in assay [1] and greater than 1000 nM in assay [2]. For the same compound, the GI50 in assay [3] was greater than 1000 nM.
Turning to `C#Cc1cccc2cccc(-c3ncc4c(N5CC6CCC(C5)N6)nc(OCC5(CN6CCN(Cc7ccc8c(c7)CN(C7CCC(=O)NC7=O)C8=O)CC6)CC5)nc4c3F)c12` (centres unmarked) [Compound 31, 3-(5-((4-((1-(((4-(3,8-diazabicyclo[3.2.1]octan-3-yl)-7-(8-ethynylnaphthalen-1-yl)-8-fluoropyrido[4,3-d]pyrimidin-2-yl)oxy)methyl)cyclopropyl)methyl)piperazin-1-yl)methyl)-1-oxoisoindolin-2-yl)piperidine-2,6-dione formate], the IC50 against KRAS(G12D)/SOS1 is less than 100 nM; in assay [1] it was greater than 1000 nM; in assay [2], greater than 1000 nM. Moreover, in assay [3], the GI50 is greater than 1000 nM.
As to `Cc1ncsc1-c1ccc(CNC(=O)[C@@H]2C[C@@H](O)CN2C(=O)[C@@H](NC(=O)CCNC(=O)C2CCN([C@H]3C[C@@H](COc4nc(N5CC6CCC(C5)N6)c5cnc(-c6cccc7cccc(Cl)c67)c(F)c5n4)N(C)C3)CC2)C(C)(C)C)cc1` [Compound 27, 1-((3S,5S)-5-(((4-(3,8-diazabicyclo[3.2.1]octan-3-yl)-7-(8-chloronaphthalen-1-yl)-8-fluoropyrido[4,3-d]pyrimidin-2-yl)oxy)methyl)-1-methylpyrrolidin-3-yl)-N-(3-(((S)-1-((2S,4R)-4-hydroxy-2-((4-(4-methylthiazol-5-yl)benzyl)carbamoyl)pyrrolidin-1-yl)-3,3-dimethyl-1-oxobutan-2-yl)amino)-3-oxopropyl)piperidine-4-carboxamide formate], the half-inhibitory concentration (IC50) at KRAS(G12D)/SOS1 is 100 to 1000 nM; in assay [1], greater than 1000 nM; in assay [2] it was greater than 1000 nM. In assay [3], the GI50 is greater than 1000 nM.
